In the NIST ThermoML archive (doi:10.1016/j.tca.2007.07.002):

Assay: mn = molality of the nth substance listed, in mol/kg
Conditions: 298.15 K, 101 kPa, Liquid, Vibrating tube method

CCCC(N)=O [butanamide] + O
Conditions	mass density [kg/m3]
m1 = 0.2015	997.019
m1 = 0.3122	997.028
m1 = 0.4106	997.052
m1 = 0.5053	997.083
m1 = 0.628	997.117
m1 = 0.7131	997.16
m1 = 0.827	997.21
m1 = 0.9204	997.269
